# Test results from US9719057B2, “Laundry detergent” (Liquid Vanity ApS, priority 2010, dated 2017).
# Experiments:
# [1] = tested on: Candida albicans, ATCC 2091; experiment: Biocidal effect, dosage response and synergy (reduction in CFU after exposure to biocide); format: cell-based; conditions: 9 minutes at 30° C.; for Reduction obtained in Candida Albicans: pH 6-6.5, factor of reduction in CFU
# From the text: (§1) The assay is based on the requirements to chemical disinfectants and antiseptic agent with regard to a reduction in fungus and bacteria of 4 and 5 log units respectively. These requirements are stated in DS/EN 1276:1997 and DS/EN 1275:2005, respectively.
# (§2) The following microorganisms were chosen for this dosage response assays: Staphylococcus aureus, ATCC 6538, representing grampositive bacteria; Escherichia coli, ATCC 11229, representing gramnegative bacteria; and Candida albicans, ATCC 2091, representing yeast fungi.
# Candida albicans was cultivated on malt extract agar (MEA) for 24 h at 37° C. before use. Then the yeast cells were harvested in 0.9% saline by use of a drigalski spatula. CFU were determined by plating on MEA.
# (§3) The exposure to biocide was performed at pH 6-6.5, which was obtained by addition of 100 mM potassium phosphate buffer. To test tubes with 8 mL sterile 100 mM phosphate buffer were added 1 mL test solution (i.e. biocide solution) and 1 mL stock culture. After thorough mixing the assay mixtures were exposed to heating in water bath at 30° C. for 9 minutes. After exposure the test tubes were immediately removed from the water bath and the surviving microorganisms were determined by plating.
# (§4) Reference samples were prepared by adding 1 mL sterile water instead of 1 mL test solution.
# (§5) From appropriate dilutions of starting material (mixture of biocide solution, stock culture and buffer) was taken 0.1 mL onto agar plates, and the material was spread with Drigalski spatulas. The plates were incubated at 37° C. 1 day for bacteria and 2 days for yeast.
# (§6) For determining CFU of the bacteria after exposure, with and without biocide, was used incubation on TSA for 24 h at 37° C. For determining CFU of Candida albicans before and after exposure was used incubation on MEA for 48 h at 37° C.
# (§7) Where a large reduction in organisms was expected (test concentrations of 700 and 200 ppm) 1 mL and 0.1 mL solution, respectively, were mixed with 100 ml sterile water and filtered through a 47 mm Millipore EZ-Pak® membrane filter, mesh 0.22 μm. The filter was rinsed with 100 mL sterile water, and thereafter placed directly on the agar plate. The mixing in water and subsequent rinsing ensures that the biocide is heavily diluted and thus will not have any effect after plating. For dilutions of 100× and more, regular plating were used, as the biocide at these concentrations is considered to not provide any further reduction in the microorganisms during plating on agar.
# (§8) Plates with between 20 and 500 CFU were chosen for counting. Number of CFU (colony forming units) per g or mL sample was calculated by multiplying the number of colonies per plate with the dilution and further by 10, as only 0.1 mL was used on each plate.
# (§9) After incubation, CFU was determined and reduction in organisms was calculated. All tests were performed in triplicate.
# (§10) The optimal biocides, Bardap-26 and Akacid Forte, found in Example 4A, were further assayed for synergistically effect. Bardap-26 and Akacid Forte was mixed in a 50:50 ratio, and the applied concentrations can be seen from Table 5. The methods and solutions were otherwise as described in example 4A herein.
# [2] = Critical micelle concentration by Sudan Black B absorbance at 600 nm; format: physicochemical; conditions: data not shown
# Procedure: The critical micelle concentration is measured using Sudan Black B dissolved in the test solutions at different concentrations. Sudan Black B is dissolvable in micelles, only. A difference in the absorbance measured is thus a valid measure of the critical micelle concentration in the test solutions. Absorbance was measured using a Shimadzu UV-1800 spectrofotometer and the absorbance is measured at 600 nm. Dilutions were made in water and Sudan Black B by adding first water, then Sudan Black B and at last the test solutions to 4 ml cuvettes. The dilutions were then stirred and left for at least 6 hours at room temperature. Then the absorbance was measured.
# [3] = tested on: Escherichia coli, ATCC 11229; experiment: Biocidal effect, dosage response and synergy (reduction in CFU after exposure to biocide); format: cell-based; conditions: 9 minutes at 30° C.; for Reduction obtained in E. coli: pH 6-6.5, factor of reduction in CFU
# From the text: as §1, §2
# (§11) The bacterial cultures were cultivated in the growth medium TSB (Tryptic Soy Bouillon) for 24 h at 37° C. before use. Colony forming units (CFU) were determined by plating Tryptic Soy Agar (TSA).
# as §3, §4, §5, §6, §7, §8, §9, §10
# [4] = tested on: Staphylococcus aureus, ATCC 6538; experiment: as above; format: cell-based; conditions: 9 minutes at 30° C.; for Reduction obtained in Staphylococcus Aureus: pH 6-6.5, factor of reduction in CFU
# From the text: as §1, §2, §11, §3, §4, §5, §6, §7, §8, §9, §10
# [5] = 120 ppm active (total for mixtures)
# [6] = test concentrations 40-700 ppm active
substance,measurement,setting,value
"N,N-didecyl-N-methyl-poly(oxyethyl) ammonium propionate [Bardap-26]",Reduction obtained in Candida Albicans,[1]; 40 ppm active,No reduction
same,Reduction obtained in Candida Albicans,[1]; 80 ppm active,10^2-10^3
same,Reduction obtained in Candida Albicans,[1]; [5],~10^3
same,Reduction obtained in Candida Albicans,[1]; 160 ppm active,~10^4
same,Reduction obtained in Candida Albicans,[1]; 200 ppm active,~10^4
same,Reduction obtained in Candida Albicans,[1]; 700 ppm active,10^4-10^5
same,Reduction of Candida Albicans,[1]; concentration not given,10^4
same,Effect on Candida Albicans as summarised in words,[1]; [6],good effect
same,CMC,[2],0.7 to 1.0 mmol/L
same,Reduction obtained in E. coli,[3]; 40 ppm active,~10^4
same,Reduction obtained in E. coli,[3]; 80 ppm active,~10^4
same,Reduction obtained in E. coli,[3]; [5],10^4-10^5
same,Reduction obtained in E. coli,[3]; 160 ppm active,>10^7
same,Reduction obtained in E. coli,[3]; 200 ppm active,>10^7
same,Reduction obtained in E. coli,[3]; 700 ppm active,>10^7
same,Effect on E. coli as summarised in words,[3]; [6],good effect
same,Reduction obtained in Staphylococcus Aureus,[4]; 40 ppm active,~10^2
same,Reduction obtained in Staphylococcus Aureus,[4]; 80 ppm active,10^2-10^3
same,Reduction obtained in Staphylococcus Aureus,[4]; [5],10^2-10^3
same,Reduction obtained in Staphylococcus Aureus,[4]; 160 ppm active,>10^7
same,Reduction obtained in Staphylococcus Aureus,[4]; 200 ppm active,>10^7
same,Reduction obtained in Staphylococcus Aureus,[4]; 700 ppm active,>10^7
same,Effect on Staphylococcus Aureus as summarised in words,[4]; [6],good effect
